Measurements reported in ChEMBL document CHEMBL1121775, “Synthesis and antimalarial effects of N2-aryl-N4-[(dialkylamino)alkyl]- and N4-aryl-N2-[(dialkylamino)alkyl]-2,4-quinazolinediamines” (J Med Chem, 1981).
Values joined by “and” are separate entries in the source; they are usually repeats but may differ in a detail not shown here. Identical values can stand only once.

What was measured:
Mus musculus [1] = assay: Number of mice cured at a subcutaneous dose of 320 mg/kg.; format: functional
Plasmodium berghei [2] = assay: Antimalarial activity against trophozoite-induced Plasmodium berghei in mice (Mus musculus) at 160 mg/kg subcutaneous dose; format: functional
Plasmodium berghei [3] = assay: Antimalarial effect against trophozoite-induced Plasmodium berghei in mice (Mus musculus) after 40 mg/kg subcutaneous dose; format: functional
Mus musculus [4] = assay: Number of mice cured at a subcutaneous dose of 160 mg/kg.; format: functional; settings: 160 mg/kg
Plasmodium berghei [5] = assay: Antimalarial effect against trophozoite-induced Plasmodium berghei in mice (Mus musculus) at 80 mg/kg subcutaneous dose; format: functional
Plasmodium berghei [6] = assay: Antimalarial effect against trophozoite-induced Plasmodium berghei in mice (Mus musculus) after 20 mg/kg subcutaneous dose; format: functional
Plasmodium berghei [7] = assay: Antimalarial effect against trophozoite-induced Plasmodium berghei in mice (Mus musculus) at 320 mg/kg subcutaneous dose; format: functional
Plasmodium berghei [8] = assay: Antimalarial activity against trophozoite-induced Plasmodium berghei in mice (Mus musculus); format: functional
[9] = The ratio of SD90 of the quinine hydrochloride, to the SD90 of the test substance for the Dose of 9.2 mg/kg; format: functional
[10] = The ratio of SD90 of the quinine hydrochloride, to the SD90 of the test substance for the Dose of 91 […]; format: functional
Plasmodium berghei [11] = assay: (§1) Antimalarial effect against trophozoite-induced Plasmodium berghei in mice (Mus musculus) at 640 mg/kg subcutaneous dose; format: functional
Plasmodium berghei [12] = assay: Antimalarial effect against trophozoite-induced Plasmodium berghei in mice (Mus musculus) at 160 mg/kg subcutaneous dose; format: functional
Mus musculus [13] = assay: Antimalarial effect against trophozoite induced Plasmodium berghei in mice (Mus musculus) at dosage of 160 mg/kg after subcutaneous administration; No. of mice (Mus musculus) surviving after 60 days 1; format: functional
[14] = The ratio of SD90 of the quinine hydrochloride, to the SD90 of the test substance for the Dose of 35 mg/kg; format: functional
[15] = The ratio of SD90 of the quinine hydrochloride, to the SD90 of the test substance for the Dose of 63 mg/kg; format: functional
[16] = The ratio of SD90 of the quinine hydrochloride, to the SD90 of the test substance for the Dose of mg/kg; format: functional
Mus musculus [17] = assay: Number of mice cured at a dose 160 mg/kg sc; format: functional; settings: route subcutaneous
Mus musculus [18] = assay: Antimalarial effect against trophozoite-induced Plasmodium berghei in mice (Mus musculus) at dosage of 320 mg/kg after subcutaneous administration;; format: functional
Mus musculus [19] = assay: Number of mice cured at a dose of 640 mg/kg sc; format: functional; settings: route subcutaneous
[20] = The ratio of SD90 of the quinine hydrochloride, to the SD90 of the test substance for the Dose of 46 mg/kg; format: functional
[21] = The ratio of SD90 of the quinine hydrochloride, to the SD90 of the test substance for the Dose of 18.5 mg/kg; format: functional
Plasmodium berghei [22] = assay: as §1; format: functional; remark: listed apart in the source
Mus musculus [23] = assay: Antimalarial effect against trophozoite-induced Plasmodium berghei in mice (Mus musculus) at dosage of 640 mg/kg after subcutaneous administration; No. of mice (Mus musculus) surviving after 60 days 4; format: functional
Mus musculus [24] = assay: Number of toxic deaths at a dose of 640 mg/kg; format: toxicity, organism-based; set-up: dose 640 mg/kg; settings: in vivo
Mus musculus [25] = assay: Number of toxic deaths at a dose of 320 mg/kg; format: toxicity, organism-based; set-up: dose 320 mg/kg; settings: in vivo

Structure (SMILES) | No. of survivals (Mus musculus [1]) | MST (Plasmodium berghei [5]) [days] | SD90 (Plasmodium berghei [8]) [mg/kg/day] | MST (Plasmodium berghei [6]) [days] | MST (Plasmodium berghei [7]) [days] | MST (Plasmodium berghei [12]; 160 mg/kg) | MST (Plasmodium berghei [12]) [days] | MST (Plasmodium berghei [3]) [days] | other results
CN(C)C1CCC(Nc2nc(Nc3ccc(Cl)c(Cl)c3)nc3ccccc23)CC1 (stereo in doubt; 24) | 3 | 6.4 | 9.2 | – | – | – | – | – | MST (Plasmodium berghei [2]; 160 mg/kg): 20.1 days and 16.5 days; MST (Plasmodium berghei [3]; 40 mg/kg): 4.8 days and 3.8 days; No. of survivals (Mus musculus [4]): 1 and 2; MST (Plasmodium berghei [6]; 20 mg/kg): 0.4 days; MST (Plasmodium berghei [7]; 320 mg/kg): 24.3 days; Ratio [9]: 8.2
Brc1cccc(Nc2nc(NCCN3CCCC3)c3ccccc3n2)c1 | – | 0.4 | 91 | 0.2 | 5 | 4.4 days and 4 days | – | – | Ratio [10]: 0.8; MST (Plasmodium berghei [11]; 640 mg/kg): 8.4 days and 8.1 days
CCN(CC)CCNc1nc(Nc2ccc(Cl)c(Cl)c2)c2ccccc2n1 | – | 0.2 | – | 0.2 | 3.2 | – | 0.9 | – | MST (Plasmodium berghei [11]; 640 mg/kg): 10.3 days and 5.4 days and 5.9 days; MST (Mus musculus [13]): 0.2 days
CSc1ccc(Nc2nc(NCCN3CCCC3)c3ccccc3n2)cc1 | – | 3.3 | 35 | 0.7 | 10.3 | 5.9 days and 4.7 days | – | – | MST (Plasmodium berghei [3]; 40 mg/kg): 0.9 days and 0.3 days; Ratio [14]: 2.1
CCN1CCCC(Nc2nc(Nc3ccc(Cl)c(Cl)c3)nc3cc(Cl)ccc23)C1 (configuration not stated) | – | 0.3 | 63 | 0.1 | 0.3 | – | – | – | Ratio [15]: 1.2
CCN1CCCC(Nc2nc(Nc3cc(Cl)cc(Cl)c3)nc3cc(Cl)ccc23)C1 (configuration not stated) | – | – | 73 | – | – | – | 0.4 | 0.2 | MST (Plasmodium berghei [11]): 1.6 days; Ratio [16]: 73
CCN(CC)C1CCC(Nc2nc(Nc3ccc(I)cc3)c3ccccc3n2)CC1 (configuration not stated) | 2 | – | – | 0.3 | 9.9 | – | 14.4 | 0.5 | No. of survivals (Mus musculus [17]): 2; MST (Plasmodium berghei [2]): 8.6 days; MST (Mus musculus [18]): 9.4 days; MST (Plasmodium berghei [5]; 80 mg/kg): 0.7 days and 0.5 days; No. of survivals (Mus musculus [19]; 640 mg/kg): 3 and 2
CCN1CCCC(Nc2nc(Nc3ccc(Cl)c(Cl)c3)nc3ccc(Cl)cc23)C1 (configuration not stated) | – | – | 46 | 0.1 | – | – | 0.3 | 0.1 | Ratio [20]: 1.6
CN1CCCC1CCNc1nc(Nc2ccc(Cl)c(Cl)c2)nc2ccc(Cl)cc12 (configuration not stated) | 2 | 2.7 | 18.5 | 0.5 | 14.2 | 6.1 days and 2.5 days | – | – | MST (Plasmodium berghei [3]; 40 mg/kg): 1.1 days and 0.5 days; MST (Plasmodium berghei [11]): 13.6 days; Ratio [21]: 4
CCN(CC)CCNc1nc(Nc2ccc(Cl)c(Cl)c2)nc2cc([N+](=O)[O-])ccc12 | – | 0.9 | 9.2 | 0.3 | 9.5 | 0.9 days and 1.1 days | – | 0.3 | MST (Plasmodium berghei [22]): 26.9 days; MST (Mus musculus [23]): 21.9 days; No. of survivals (Mus musculus [19]): 3; Ratio [9]: 8.1
CN1CCCC1CCNc1nc(Nc2ccc(Cl)c(Cl)c2)c2ccccc2n1 (configuration not stated) | 1 | – | – | 0.3 | 11.2 | 6.9 days and 7.1 days | – | 0.5 | MST (Plasmodium berghei [5]; 80 mg/kg): 0.5 days and 0.7 days; No. of survivals (Mus musculus [19]): 1; No. of toxic deaths (Mus musculus [24]): 2; No. of toxic deaths (Mus musculus [25]): 1 and 2
FC(F)(F)c1cc(Nc2nc(NCCN3CCCC3)c3ccccc3n2)cc(C(F)(F)F)c1 | – | – | 105 | – | – | – | 0.2 | 0.2 | MST (Plasmodium berghei [11]): 1 days; Ratio [16]: 105
